Data: US20240124467A1, “FUSED PYRIMIDINE COMPOUNDS AS INHIBITORS OF MENIN-MLL INTERACTION” (Biomea Fusion, Inc., priority 2020, published 2024)
Read-outs that look alike come from different tables or passages of the source.

Experiments:
Format in all cases: cell-based
K-562 = test: Cell proliferation inhibition (CellTiter-Glo), K-562 cells; settings: Homo sapiens, K-562 (BCR-ABL)
Description: (§1) The present example evaluates the ability of compounds described herein, inhibitors of Menin/MLL interaction, to inhibit cell proliferation. The proliferation inhibitory effect was investigated in human MLL-leukemia cells selected on the bases of MLL fusion proteins and listed in the table below.
(§2) ATP is present in all metabolically active cells and is considered as a marker for cell viability and proliferation. The metabolic cell activity was determined using the CellTiter-Glo kit from Promega, an ATP monitoring system based on the production of luminescence by the reaction of ATP with added UltraGlo® recombinant luciferase (Kawano et al., 2016, PLOS One, 8:11(7):e0158888), according to the supplier's experimental recommendations. The assay is based on a 96 well plate format. All experiments were carried out in duplicate in one test occasion.
(§3) Test items were dissolved at 20 mM in DMSO with purity ≥99.9% (Sigma catalog no. D8418) and stored at −20° C. Cells were maintained in RPMI-1640 medium (Invitrogen catalog no. 618700) supplemented with 10% of Heat Inactivated FBS (Invitrogen catalog no. 10500) and 1% Pen-Strep (Invitrogen catalog no. 15140) and cultured at 37° C. in a humidified incubator with 5% CO2. Cell lines were grown in suspension and the cell density was maintained in a range of 5×10^4-1×10^6 viable cells/ml where possible. Cells were pelleted at 130 g×5 min.
(§4) Serial dilutions of compounds 1 to 3 in DMSO 100% were prepared starting from a 2.5 mM solutions (prepared by diluting 1:8 the 20 mM stock solution) to generate a 7 point concentration response curve (CRC). Seven concentrations of test compounds (e.g., 5.00×10^−6-1.67×10^−6-5.56×10^−7-1.85×10^−7-6.17×10^−8-2.06×10^−8-6.86×10^−9 M) were assessed in duplicate in an individual test occasion in parallel in the selected cell lines. KO-539 was used as a reference compound and tested in duplicate at seven similar concentrations. 100% of proliferation was represented by the untreated cells (0.2% DMSO).
(§5) Cell proliferation inhibition was monitored at both the following end points: Day 4 (T4) and Day 7 (T7). For the appropriate cell density during the exponential cell growth and re-supply with fresh compound solution at T4, cells were diluted (1:4) with fresh medium containing the compound concentration (1×).
(§6) For each plate to test, one 0.4 μL copy plate and four 0.3 μL copy plates were stamped into 96-well plates not treated for cell adhesion (Sarstedt—cat. no. 82.1581.001) by acoustic liquid handling (Echo) at a concentration which was 500 fold the final assay concentration. Stamped plates were stored at −20° C.
(§7) On Day 0, the day of the experiment cell line suspensions were counted by Cell Viability Analyser, Vi-CELL (Beckman Coulter AY15292), and diluted with fresh medium to obtain the following cell densities: K-562 500 c/ml, MOLM-13 1,000 c/ml, MV4-11 10,000 c/ml, OCI-AML-3 500 c/ml, and U-937 500-1,000 c/ml. 200 μL/well and 150 μL/well of cell suspension were added into the 0.4 μL/well and 0.3 μL/well compound plates, respectively. Cell plate containing 200 μL/well suspension were incubated at 37° C. in a humidified incubator with 5% CO2. From each well of the 150 μL/well cell assay plate, 100 μL were harvested and transferred into a 96-well Optiplate (Perkin Elmer, cat. no. 6005290). Cell viability was measured as described below.
(§8) On Day 4, 150p/well of fresh medium was added into a new 0.3 μL/well copy compound plates. From each well of the 200 μL/well cell assay plate, 100 μL was sampled for the cell viability measurement as described below. 50p was harvested and added to the 150p/well compound plate prepared as described in the first point to dilute 1:4 the cell suspension. The cell assay plate diluted and containing 200 μL/well suspension was incubated at 37° C. in a humidified incubator with 5% CO2.
(§9) On Day 4, 150p/well of fresh medium was added into a new 0.3 μL/well copy compound plates. […]

MOLM-13 = test: Cell proliferation inhibition (CellTiter-Glo), MOLM-13 cells; settings: Homo sapiens, MOLM-13 (MLL-AF9)
Description: as §1, §2, §3, §4, §5, §6, §7, §8, §9

MV4-11 = test: Cell proliferation inhibition (CellTiter-Glo), MV4-11 cells; settings: Homo sapiens, MV4-11 (MLL-AF4)
Description: as §1, §2, §3, §4, §5, §6, §7, §8, §9

OCI-AML3 = test: Cell proliferation inhibition (CellTiter-Glo), OCI-AML3 cells; settings: Homo sapiens
Description: as §1, §2, §3, §4, §5, §6, §7, §8, §9

U-937 = test: Cell proliferation inhibition (CellTiter-Glo), U-937 cells; settings: Homo sapiens, U-937 (MLL-wt), Table 3
Description: as §1, §2, §3, §4, §5, §6, §7, §8, §9

[1] = K562, 96 h, Day 4, read-out: K-562 IC50 μM (Day 4)
[2] = 96 h, Day 4, read-out: MOLM-13 Day IC50 μM (Day 4)*
[3] = 96 h, Day 4, read-out: MV-4:11 IC50 μM (Day 4)*
[4] = K562, 168 h, Day 7, read-out: K-562 IC50 μM (Day 7)*
[5] = 168 h, Day 7, read-out: MOLM-13 Day IC50 μM (Day 7)*
[6] = 168 h, Day 7, read-out: MV-4:11 IC50 μM (Day 7)*

| SMILES | IC50 (K-562; [1]) [µM] | IC50 (MOLM-13; [2]) [µM] | IC50 (MV4-11; [3]) [µM] | further results |
| --- | --- | --- | --- | --- |
| C=CC(=O)Nc1ccc(CC(=O)Nc2ccc(-c3cc4c(N5CCOCC5)ncnc4[nH]3)cc2)nc1 [Compound B0700-314, N-(6-(2-((4-(4-morpholino-7H-pyrrolo[2,3-d]pyrimidin-6-yl)phenyl)amino)-2-oxoethyl)pyridin-3-yl)acrylamide] | – | – | – | IC50 (K-562; K562, 96 h, 4 d, Table 3, read-out: K-562 IC50 μM 4 d): 0.55 µM; IC50 (K-562; K562, 168 h, 7 d, Table 3, read-out: K-562 IC50 μM 7 d): 0.468 µM; IC50 (MOLM-13; 96 h, 4 d, Table 3, read-out: MOLM13 μM 4 d): 0.191 µM; IC50 (MOLM-13; 168 h, 7 d, Table 3, read-out: MOLM13 μM 7 d): 0.178 µM; IC50 (MV4-11; 96 h, 4 d, Table 3, read-out: MV4-11 IC50 μM 4 d): 0.145 µM; IC50 (MV4-11; 168 h, 7 d, Table 3, read-out: MV4-11 IC50 μM 7 d): 0.129 µM; IC50 (OCI-AML3; OCI-AML-3, 96 h, 4 d, Table 3, read-out: OCI-AML3 IC50 μM 4 d): 0.145 µM; IC50 (OCI-AML3; OCI-AML-3, 168 h, 7 d, Table 3, read-out: OCI-AML3 IC50 μM 7 d): 0.095 µM; IC50 (U-937; 96 h, 4 d, read-out: U-937 IC50 μM 4 d): 0.288 µM; IC50 (U-937; 168 h, 7 d, read-out: U-937 IC50 μM 7 d): 0.158 µM |
| C=CC(=O)NC1CN(c2ccnc(NC3CC4(CCN(c5nc6c(N7CCOCC7)ncnc6[nH]5)CC4)C3)c2)C1 [Compound B0700-507, N-(1-(2-((7-(6-morpholino-9H-purin-8-yl)-7-azaspiro[3.5]nonan-2-yl)amino)pyridin-4-yl)azetidin-3-yl)acrylamide] | > 10 | 5.21 | 4.22 | – |
| C=CC(=O)N[C@@H]1CCCN(c2cccc([C@H](C)S(=O)(=O)Nc3ccc(-c4cc5c(N6CCOCC6)ncnc5[nH]4)cc3)c2)C1 [Compound B0700-547] | > 10 | 1.39 | 0.418 | – |
| C=CC(=O)N[C@H]1CCN(c2cccc(C(C)S(=O)(=O)Nc3ccc(-c4cc5c(N6CCOCC6)ncnc5[nH]4)cc3)c2)C1 (stereo partly shown) [Compound B0700-543] | 9.07 | 0.158 | 0.073 | – |
| C=CC(=O)N[C@@H]1CCCN(Cc2ccnc(C(=O)NC3CCC(c4cc5c(N6CCOCC6)ncnc5[nH]4)CC3)c2)C1 (stereo partly drawn) [Compound B0700-526, (R)-4-((3-acrylamidopiperidin-1-yl)methyl)-N-(4-(4-morpholino-7H-pyrrolo[2,3-d]pyrimidin-6-yl)cyclohexyl)picolinamide] | > 10 | 3.46 | 6.83 | – |
| C=CC(=O)N1CCCC(N2CCC(S(=O)(=O)Nc3ccc(-c4cc5c(N6CCOCC6)ncnc5[nH]4)cc3)C2)C1 (stereo not shown) [Compound B0700-611, 1-(1-acryloylpiperidin-3-yl)-N-(4-(4-morpholino-7H-pyrrolo[2,3-d]pyrimidin-6-yl)phenyl)pyrrolidine-3-sulfonamide] | > 10 | 0.963 | 0.629 | IC50 (K-562; [4]): > 10 µM; IC50 (MOLM-13; [5]): 0.834 µM; IC50 (MV4-11; [6]): 0.38 µM |
| C=CC(=O)N1CCCC(N2CC[C@@H](C(=O)Nc3ccc(-c4cc5c(N6CCOCC6)ncnc5[nH]4)cc3)C2)C1 (stereo partly drawn) [Compound B0700-608, (3R)-1-(1-acryloylpiperidin-3-yl)-N-(4-(4-morpholino-7H-pyrrolo[2,3-d]pyrimidin-6-yl)phenyl)pyrrolidine-3-carboxamide] | 2.19 | 0.197 | 0.138 | IC50 (K-562; [4]): 3.65 µM; IC50 (MOLM-13; [5]): 0.164 µM; IC50 (MV4-11; [6]): 0.1 µM |
| Cc1cc(C)n2c1C=C1C=CC(CCC(=O)NCCCCN(C)C/C=C/C(=O)N[C@@H]3CCCN(Cc4ccnc(C(=O)Nc5ccc(-c6cc7c(N8CCOCC8)ncnc7[nH]6)cc5)c4)C3)=[N+]1[B-]2(F)F [Compound B0700-503] | 2.51 | 4.51 | 2.89 | – |
| C=CS(=O)(=O)N[C@@H]1CCCN(c2cccc(CS(=O)(=O)Nc3ccc(-c4cc5c(N6CCOCC6)ncnc5[nH]4)cc3)c2)C1 [Compound B0700-542, (R)—N-(1-(3-((N-(4-(4-morpholino-7H-pyrrolo[2,3-d]pyrimidin-6-yl)phenyl)sulfamoyl)methyl)phenyl)piperidin-3-yl)ethenesulfonamide] | 3.3 | 0.48 | 0.322 | – |
| C=CC(=O)N[C@@H]1CCCN(c2cccc([C@@H](C)S(=O)(=O)Nc3ccc(-c4cc5c(N6CCOCC6)ncnc5[nH]4)cc3)c2)C1 [Compound B0700-546] | > 10 | 3.59 | 1.75 | – |
| C=CC(=O)NC1CN(c2ccnc(CC(=O)Nc3ccc(-c4cc5c(N6CCOCC6)ncnc5[nH]4)cc3)n2)C1 [Compound B0700-323, N-(1-(2-(2-((4-(4-morpholino-7H-pyrrolo[2,3-d]pyrimidin-6-yl)phenyl)amino)-2-oxoethyl)pyrimidin-4-yl)azetidin-3-yl)acrylamide] | > 10 | 3.67 | 1.18 | – |

Second part, led by results:

| IC50 (K-562; [1]) [µM] | IC50 (MOLM-13; [2]) [µM] | IC50 (MV4-11; [3]) [µM] | SMILES | further results |
| --- | --- | --- | --- | --- |
| > 10 | 0.495 | 0.419 | C=CC(=O)N[C@@H]1CCCN(Cc2ccnc(C(=O)Nc3ccc(-c4cc5c(N6CCC(O)CC6)ncnc5[nH]4)cc3)c2)C1 [Compound B0700-568] | IC50 (K-562; [4]): > 10 µM; IC50 (MOLM-13; [5]): 0.924 µM; IC50 (MV4-11; [6]): 0.34 µM |
| > 10 | 0.475 | 0.796 | C=CC(=O)N[C@@H]1CCCN(Cc2ccnc(C(=O)Nc3ccc(-c4cc5c(N6CCOCC6)ncnc5[nH]4)cc3F)c2)C1 [Compound B0700-549] | – |
| 1.48 | 0.54 | 0.47 | C=CC(=O)N[C@@H]1CCCN(Cc2ccnc(C(=O)Nc3ccc(-c4cc5c(C67CCOCC6C7)ncnc5[nH]4)cc3)c2)C1 (stereo partly shown) [Compound B0700-706] | – |
| 0.616 | 0.28 | 0.314 | C=CC(=O)N[C@@H]1CCCN(Cc2ccc(F)c(C(=O)Nc3ccc(-c4cc5c(N6CCOCC6)ncnc5[nH]4)cc3)c2)C1 [Compound B0700-530] | – |
| 6.14 | 0.351 | 0.969 | C=CC(=O)N[C@@H]1CCCN(Cc2ccnc(C(=O)Nc3ccc(-c4cc5c(N6CCOCC6)ncnc5[nH]4)c(F)c3)c2)C1 [Compound B0700-529, (R)-4-((3-acrylamidopiperidin-1-yl)methyl)-N-(3-fluoro-4-(4-morpholino-7H-pyrrolo[2,3-d]pyrimidin-6-yl)phenyl)picolinamide] | – |
| 1.18 | 0.462 | 0.464 | C=CC(=O)N[C@@H]1CCCN(Cc2ccnc(C(=O)Nc3ccc(-c4[nH]c5ncnc(N6CCOCC6)c5c4C)cc3)c2)C1 [Compound B0700-528] | – |
